Literature values, collected in patent US8980870B2, “Solid telmisartan pharmaceutical formulations” (Boehringer Ingelheim International GmbH, priority 2002, dated 2015).

Details: physiological pH range of the gastrointestinal tract, between pH 1 to 7; both polymorphic forms A and B

Structure (SMILES): CCCc1nc2c(C)cc(-c3nc4ccccc4n3C)cc2n1Cc1ccc(-c2ccccc2C(=O)O)cc1 [telmisartan, 4′-[2-n-propyl-4-methyl-6-(1-methylbenzimidazol-2-yl)benzimidazol-1-ylmethyl]biphenyl-2-carboxylic acid]
- solubility in aqueous systems: very poor solubility
